Data reported in US20250248940A1, “Biopolymer Formulations for Drug Delivery” (11584022 Canada Inc., priority 2022, published 2025).

Test: release of API into water from dried API-biopolymer pellets, measured by UV/VIS spectroscopy
Type: physicochemical
Conditions: from the dry biopolymer matrix, versus acetyl salicylic acid
Protocol: Briefly biopolymer suspensions were produced with a known quantity of API added to the suspensions. The suspensions with API were then dried as pellets. These pellets were then added to a known volume of water and aliquots of the water were removed periodically to determine the rate of release of the API. The API concentration was measured using UV/VIS spectroscopy. The sample was dried for 10 hours in air and 3 hours in the oven at 50° C. The acetaminophen concentration in dried materials was 29.58% w/w. This figure represents release of acetaminophen into water from the dried acetaminophen doped chitin suspension, where the concentration of acetaminophen, in g/L, is plotted against time, in minutes.

## CC(=O)Nc1ccc(O)cc1 [acetaminophen]
  release rate compared between drugs: slower release
